Assay results published in PMC11178787, “Development of a natural product optimization strategy for inhibitors against MraY, a promising antibacterial target” (Nature Communications, 2024).
≈ marks a conversion by molar mass, not a printed value.

Key:
Assay in all cases: microbe, parasite or virus in culture
[1] = tested on: T1, E. faecium ATCC 35667; conditions: Enterococcus faecium, ATCC35667
T1 construct: ATCC 35667
Experimental: (§1) MICs were determined by a microdilution broth method as recommended by the CLSI with MHB-II. For MICs of stable analogues, a 2-fold dilution of each compound was prepared in DMSO at 100-fold of the final concentration. The strains were inoculated with 5 × 10^5 cfu/mL in 96-well plates (each 100 μL/well), and 1 μL of DMSO solutions of the samples were added (contained less than 1% DMSO). The plates were incubated at 37 °C for 18 h and then MICs were determined. MICs of stable analogues in Table 1 were the highest value in three trials. MICs in Supplementary Table 1 were determined in one trial.  Fig. 2 Results of biological evaluations of hydrazone library. a General structures of hydrazine fragment moiety are shown. Each hydrazine class are represented by different colours (green; BZ, cyan; PA, grey; AC, yellow; AA, orange; LA). b–h MraY inhibitory activity and antibacterial activity of the hydrazone library. The bar graphs show the relative enzyme activity with DMSO as 100% when the compound is treated at given concentration (b,c; TUN at 100 nM, d,e; MRY at 10 nM, f.g; MRD at 100 nM, h; CAP at 1000 nM. n = 1), with the lower bars indicating higher inhibitory activity. The colour of the bars corresponds to Fig. 2a. […] Data of control compounds (van: vancomycin, col: colistin) are shown left column in each panel. E. faecium ATCC 35667, S. aureus ATCC 29213, P. aeruginosa ATCC 27853, K. pneumoniae ATCC 13883, E. cloacae ATCC 13047, A. baumannii ATCC 19606, E. coli ATCC 25922.

[2] = tested on: T2, A. baumannii ATCC 19606; conditions: Acinetobacter baumannii, ATCC19606
T2 construct: ATCC 19606
Experimental: as §1

[3] = tested on: T3, P. aeruginosa ATCC 27853; conditions: Pseudomonas aeruginosa, ATCC27853
T3 construct: ATCC 27853
Experimental: as §1

[4] = tested on: T4, E. coli ATCC 25922; conditions: Escherichia coli, ATCC25922
T4 construct: ATCC 25922
Experimental: as §1

[5] = tested on: T5, E. cloacae ATCC 13047; conditions: Enterobacter cloacae, ATCC13047
T5 construct: ATCC 13047
Experimental: as §1

[6] = tested on: Enterococcus faecium 5; parameters: CLSI broth microdilution MIC in MHB-II; conditions: Enterococcus faecium, 5, 18 h, read-out: MIC
Method in brief: (§2)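 Broth microdilution per CLSI in MHB-II, inoculum 5 × 10^5 cfu/mL. Compounds were serially 2-fold diluted in DMSO at 100-fold final concentration and added to give under 1% DMSO; plates incubated 37 °C for 18 h before MIC reading. Values are the highest of three trials, or from a single trial for some compounds.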

[7] = tested on: T6, Staphylococcus aureus #2334; parameters: CLSI broth microdilution MIC in MHB-II; conditions: Staphylococcus aureus, 18 h, read-out: MIC
T6 construct: #2334
Method in brief: as §2

[8] = tested on: T7, Staphylococcus aureus #2071; parameters: CLSI broth microdilution MIC in MHB-II; conditions: Staphylococcus aureus, 18 h, read-out: MIC
T7 construct: #2071
Method in brief: as §2

[9] = tested on: T8, Enterococcus faecalis 25; parameters: CLSI broth microdilution MIC in MHB-II; conditions: Enterococcus faecalis, 25, 18 h, read-out: MIC
T8 construct: 25
Method in brief: as §2

[10] = tested on: Enterococcus faecium 2; parameters: CLSI broth microdilution MIC in MHB-II; conditions: Enterococcus faecium, 2, 18 h, read-out: MIC
Method in brief: as §2

[11] = tested on: T9, Enterococcus faecalis 26; parameters: CLSI broth microdilution MIC in MHB-II; conditions: Enterococcus faecalis, 26, 18 h, read-out: MIC
T9 construct: 26
Method in brief: as §2

[12] = tested on: T10, Staphylococcus aureus #2933; parameters: CLSI broth microdilution MIC in MHB-II; conditions: Staphylococcus aureus, 18 h, read-out: MIC
T10 construct: #2933
Method in brief: as §2

[13] = tested on: T11, Staphylococcus aureus #2932; parameters: CLSI broth microdilution MIC in MHB-II; conditions: Staphylococcus aureus, 18 h, read-out: MIC
T11 construct: #2932
Method in brief: as §2

[14] = tested on: T12, Staphylococcus aureus #2310; parameters: CLSI broth microdilution MIC in MHB-II; conditions: Staphylococcus aureus, 18 h, read-out: MIC
T12 construct: #2310
Method in brief: as §2

[15] = tested on: Enterococcus faecium 7; parameters: CLSI broth microdilution MIC in MHB-II; conditions: Enterococcus faecium, 7, 18 h, read-out: MIC
Method in brief: as §2

[16] = tested on: Enterococcus faecium 9; parameters: CLSI broth microdilution MIC in MHB-II; conditions: Enterococcus faecium, 9, 18 h, read-out: MIC
Method in brief: as §2

[17] = tested on: T13, Staphylococcus aureus #1958; parameters: CLSI broth microdilution MIC in MHB-II; conditions: Staphylococcus aureus, 18 h, read-out: MIC
T13 construct: #1958
Method in brief: as §2

CC1(C)S[C@@H]2[C@H](NC(=O)[C@H](N)c3ccccc3)C(=O)N2[C@H]1C(=O)O [ampicillin]
MIC [1]: < 0.5 µM | MIC [2]: 50 µM (≈ 17.5 µg/mL) | MIC [3]: > 50 µM | MIC [4]: 50 µM (≈ 17.5 µg/mL) | MIC [5]: > 50 µM | MIC [6]: 128 µg/mL (≈ 366 µM) | MIC [7]: 16 µg/mL (≈ 45.8 µM) | MIC [8]: 32 µg/mL (≈ 91.6 µM) | MIC [9]: 1 µg/mL (≈ 2.86 µM) | MIC [10]: 128 µg/mL (≈ 366 µM) | MIC [11]: 1 µg/mL (≈ 2.86 µM) | MIC [12]: 32 µg/mL (≈ 91.6 µM) | MIC [13]: 32 µg/mL (≈ 91.6 µM) | MIC [14]: 32 µg/mL (≈ 91.6 µM) | MIC [15]: 0.5 µg/mL (≈ 1.43 µM) | MIC [16]: > 128 µg/mL | MIC [17]: 32 µg/mL (≈ 91.6 µM)
